ChEMBL document CHEMBL1201862, “PubChem BioAssay data set” (2004)
Calls of active or inactive are those of the source.

Key:
[1] = target: Signal transducer and activator of transcription 3 (Homo sapiens, UniProt P40763); assay: STAT3 activators, late-stage profile, late-stage follow-up, cell-based, STAT1 reporter, BCL3 qPCR, cytotoxicity, panel member STAT3 Activation (AID 2049)
CAAX prenyl protease 2 = target: T1, CAAX prenyl protease 2 (Homo sapiens, UniProt Q9Y256); assay: human Rce1 protease inhibitors, dose response, biochemical, yeast membranes, quenched-peptide fluorescence, cherry-pick (AID 588849)
T1 sequence (Q9Y256 whole entry): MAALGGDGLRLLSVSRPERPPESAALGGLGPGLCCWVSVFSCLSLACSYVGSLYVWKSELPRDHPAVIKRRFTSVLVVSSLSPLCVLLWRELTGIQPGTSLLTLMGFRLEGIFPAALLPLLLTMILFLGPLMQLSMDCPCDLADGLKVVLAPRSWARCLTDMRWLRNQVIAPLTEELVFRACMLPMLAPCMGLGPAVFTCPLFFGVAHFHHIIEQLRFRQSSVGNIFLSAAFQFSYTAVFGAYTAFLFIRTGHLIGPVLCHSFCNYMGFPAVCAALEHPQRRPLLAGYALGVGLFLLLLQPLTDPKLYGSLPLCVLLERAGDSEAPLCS

Trypsin = Trypsin (Sus scrofa, UniProt P00761); assay: porcine trypsin inhibitors, dose response, selectivity assay for Rce1 protease inhibitor project, biochemical, quenched peptide fluorescence, cherry-pick (AID 488789)
HeLa = assay: HeLa cell cytotoxicity, dose response, cytotoxicity control, 24 h, cherry-picked samples (AID 504726); assay type: functional, cell-based; conditions: Homo sapiens;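 further: potency for cytotoxicity as loss of luminescence signal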
[2] = target: T2, Dual specificity protein phosphatase 3 (Homo sapiens, UniProt P51452); assay: SAR VHR1 Fluorescent Assay for In Vitro dose response studies Set 2. [Related pubchem assays (depositor defined):AID1654, AID1661, AID1878]; assay type: functional
[3] = target: T3, Tyrosine-protein phosphatase non-receptor type 7 (Homo sapiens, UniProt P35236); assay: redox-dependent HePTP inhibition, mechanism study, biochemical, fluorescence (AID 2068); assay type: functional
T3 sequence (P35236 whole entry): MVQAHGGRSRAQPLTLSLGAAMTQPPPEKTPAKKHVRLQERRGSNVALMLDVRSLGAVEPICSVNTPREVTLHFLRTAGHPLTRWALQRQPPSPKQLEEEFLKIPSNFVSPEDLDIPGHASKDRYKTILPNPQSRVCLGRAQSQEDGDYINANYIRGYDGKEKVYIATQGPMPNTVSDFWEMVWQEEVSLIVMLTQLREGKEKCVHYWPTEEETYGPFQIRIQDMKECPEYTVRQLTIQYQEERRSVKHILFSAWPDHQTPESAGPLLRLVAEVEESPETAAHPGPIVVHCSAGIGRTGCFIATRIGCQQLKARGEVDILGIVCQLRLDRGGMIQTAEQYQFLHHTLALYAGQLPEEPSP

[4] = target: T4, Dual specificity protein phosphatase 6 (Rattus norvegicus, UniProt Q64346); assay type: functional;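 further: confirmatory in vitro dose-response testing of MKP-3 inhibition; recombinant His-tagged MKP-3 made in E. coli BL21 with OMFP substrate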
T4 sequence (Q64346 whole entry): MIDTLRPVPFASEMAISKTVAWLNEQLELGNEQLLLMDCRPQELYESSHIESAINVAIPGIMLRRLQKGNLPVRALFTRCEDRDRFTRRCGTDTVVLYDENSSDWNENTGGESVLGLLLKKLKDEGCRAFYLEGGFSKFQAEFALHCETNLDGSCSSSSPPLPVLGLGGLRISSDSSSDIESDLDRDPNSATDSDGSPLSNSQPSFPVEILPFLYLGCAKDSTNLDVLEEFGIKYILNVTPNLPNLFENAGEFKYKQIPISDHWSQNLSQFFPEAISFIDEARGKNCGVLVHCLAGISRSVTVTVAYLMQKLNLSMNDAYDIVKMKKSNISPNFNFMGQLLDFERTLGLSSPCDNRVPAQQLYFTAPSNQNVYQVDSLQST

[5] = target: T2, Dual specificity protein phosphatase 3; assay: MOA VHR1 Fluorescent secondary assay for identification of redox-state modulating compounds. [Related pubchem assays (depositor defined):AID1654, AID1661, AID1878, AID1957]
[6] = target: T3, Tyrosine-protein phosphatase non-receptor type 7; assay: HePTP (PTPN7) phosphatase inhibitor potency, SAR follow-up, biochemical, set 2 (AID 449736); assay type: functional
[7] = target: T2, Dual specificity protein phosphatase 3; assay: SAR VHR1 Fluorescent Assay for In Vitro dose response studies. [Related pubchem assays (depositor defined):AID1654, AID1661, AID1878, AID1992, AID2004, AID2070, AID2085]; assay type: functional
[8] = target: T5, Tyrosine-protein phosphatase non-receptor type 22 (Homo sapiens, UniProt Q9Y2R2); assay: SAR LYP1 Fluorescent Assay using OMFP substrate for In Vitro dose response studies - Set 3. [Related pubchem assays (depositor defined):AID1779, AID1784, AID2140, AID2686]; assay type: functional
T5 sequence (Q9Y2R2 whole entry): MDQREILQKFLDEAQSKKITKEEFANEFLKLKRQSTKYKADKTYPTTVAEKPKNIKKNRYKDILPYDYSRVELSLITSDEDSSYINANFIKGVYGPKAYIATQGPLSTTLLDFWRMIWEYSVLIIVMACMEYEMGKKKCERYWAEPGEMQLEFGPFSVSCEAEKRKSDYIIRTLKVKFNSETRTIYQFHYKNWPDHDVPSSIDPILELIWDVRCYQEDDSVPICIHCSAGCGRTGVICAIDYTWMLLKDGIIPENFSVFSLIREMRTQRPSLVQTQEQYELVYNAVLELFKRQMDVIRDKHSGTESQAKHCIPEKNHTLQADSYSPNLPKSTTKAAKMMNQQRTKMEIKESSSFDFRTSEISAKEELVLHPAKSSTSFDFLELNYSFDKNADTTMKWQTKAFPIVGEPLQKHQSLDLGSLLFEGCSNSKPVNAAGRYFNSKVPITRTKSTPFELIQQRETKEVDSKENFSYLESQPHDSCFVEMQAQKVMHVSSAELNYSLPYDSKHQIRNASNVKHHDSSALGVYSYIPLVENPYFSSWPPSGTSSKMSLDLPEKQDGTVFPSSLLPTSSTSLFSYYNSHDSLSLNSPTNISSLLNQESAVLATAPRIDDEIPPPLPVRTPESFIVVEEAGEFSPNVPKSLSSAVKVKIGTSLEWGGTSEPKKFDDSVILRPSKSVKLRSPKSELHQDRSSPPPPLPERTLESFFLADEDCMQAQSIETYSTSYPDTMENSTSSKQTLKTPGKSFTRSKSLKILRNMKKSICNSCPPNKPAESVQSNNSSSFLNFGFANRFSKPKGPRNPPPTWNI

[9] = target: T6, Tyrosine-protein phosphatase non-receptor type 12 (Homo sapiens, UniProt Q05209); assay: SAR Selectivity Analysis of small molecule inhibitors of PEST using pCAP in a fluorescence assay. [Related pubchem assays (depositor defined):AID1779, AID1784, AID2135]; assay type: functional
T6 sequence (Q05209 whole entry): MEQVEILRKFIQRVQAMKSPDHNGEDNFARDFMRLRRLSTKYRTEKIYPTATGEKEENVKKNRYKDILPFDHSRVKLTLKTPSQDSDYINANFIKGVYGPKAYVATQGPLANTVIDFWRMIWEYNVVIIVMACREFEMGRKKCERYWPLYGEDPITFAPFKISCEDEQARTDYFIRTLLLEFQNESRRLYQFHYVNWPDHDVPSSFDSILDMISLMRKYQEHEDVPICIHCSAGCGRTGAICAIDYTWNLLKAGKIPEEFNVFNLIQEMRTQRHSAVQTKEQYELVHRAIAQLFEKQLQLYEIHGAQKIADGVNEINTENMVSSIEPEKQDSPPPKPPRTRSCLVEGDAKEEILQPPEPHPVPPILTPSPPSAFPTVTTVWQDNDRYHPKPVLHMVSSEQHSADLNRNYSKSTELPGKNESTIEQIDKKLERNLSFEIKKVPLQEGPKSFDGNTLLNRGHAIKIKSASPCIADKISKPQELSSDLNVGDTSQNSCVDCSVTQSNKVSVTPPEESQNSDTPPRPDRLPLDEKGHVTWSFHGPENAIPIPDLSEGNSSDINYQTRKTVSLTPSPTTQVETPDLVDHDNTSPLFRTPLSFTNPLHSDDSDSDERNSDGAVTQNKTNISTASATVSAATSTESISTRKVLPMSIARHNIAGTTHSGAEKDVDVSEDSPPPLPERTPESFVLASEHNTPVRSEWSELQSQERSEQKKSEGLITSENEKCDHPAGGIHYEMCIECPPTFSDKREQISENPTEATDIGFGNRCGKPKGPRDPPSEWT

T2 sequence (P51452 whole entry): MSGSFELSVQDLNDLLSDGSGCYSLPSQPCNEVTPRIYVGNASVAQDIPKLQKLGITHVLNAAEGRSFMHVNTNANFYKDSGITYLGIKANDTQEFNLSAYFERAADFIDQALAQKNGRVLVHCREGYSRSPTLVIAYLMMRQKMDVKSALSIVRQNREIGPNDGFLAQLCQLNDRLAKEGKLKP
Sequence of Signal transducer and activator of transcription 3 (P40763 whole entry): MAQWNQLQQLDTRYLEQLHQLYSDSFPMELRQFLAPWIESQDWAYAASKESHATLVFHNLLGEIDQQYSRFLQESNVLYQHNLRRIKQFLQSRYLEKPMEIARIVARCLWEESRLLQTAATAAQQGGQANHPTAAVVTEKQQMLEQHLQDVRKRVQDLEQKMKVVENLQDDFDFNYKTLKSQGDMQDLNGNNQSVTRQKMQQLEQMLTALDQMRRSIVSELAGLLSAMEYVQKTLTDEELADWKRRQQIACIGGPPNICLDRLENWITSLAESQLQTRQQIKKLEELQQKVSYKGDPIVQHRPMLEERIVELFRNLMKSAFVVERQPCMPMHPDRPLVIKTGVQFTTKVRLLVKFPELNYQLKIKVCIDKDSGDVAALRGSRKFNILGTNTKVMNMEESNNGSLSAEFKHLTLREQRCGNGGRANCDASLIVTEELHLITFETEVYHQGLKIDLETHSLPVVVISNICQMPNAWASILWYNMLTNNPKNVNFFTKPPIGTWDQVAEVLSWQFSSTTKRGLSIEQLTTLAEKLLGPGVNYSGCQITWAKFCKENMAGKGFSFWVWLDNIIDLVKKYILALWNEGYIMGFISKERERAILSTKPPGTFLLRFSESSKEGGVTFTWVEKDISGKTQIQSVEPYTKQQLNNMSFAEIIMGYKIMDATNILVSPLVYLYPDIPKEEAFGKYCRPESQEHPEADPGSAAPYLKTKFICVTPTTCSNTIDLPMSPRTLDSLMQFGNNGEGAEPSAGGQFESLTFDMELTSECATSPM
Sequence of Trypsin (P00761 whole entry): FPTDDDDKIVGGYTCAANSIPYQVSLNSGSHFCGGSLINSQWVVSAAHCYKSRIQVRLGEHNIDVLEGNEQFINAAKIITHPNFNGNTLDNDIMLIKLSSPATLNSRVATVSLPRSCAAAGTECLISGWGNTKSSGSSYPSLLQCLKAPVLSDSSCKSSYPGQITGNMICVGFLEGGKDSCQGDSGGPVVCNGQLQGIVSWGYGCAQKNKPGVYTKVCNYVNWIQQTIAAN

O=C(Nc1ccccc1Cl)c1cc(C2CC2)on1
active: EC50 [1] 6.08 µM

COc1cccc2[nH]c(C(=O)NC(C)c3ccccc3)cc12 (configuration not stated)
active: AC50 (CAAX prenyl protease 2) 12.1 µM | AC50 (Trypsin) 11.2 µM | AC50 (HeLa) 182 µM

CCOC(=O)C1=C(C)N=c2s/c(=C/c3cc(Cl)c(OCC(=O)O)c(OC)c3)c(=O)n2C1c1ccccc1Cl (configuration not stated)
active: IC50 [2] 41.1 µM | IC50 [3] 1.65 µM | IC50 [4] 39.5 µM | IC50 [5] 3.07 µM | IC50 [6] 1.72 µM | IC50 [7] 15.1 µM | IC50 [8] 30.5 µM | IC50 [9] 7.63 µM
